Experimental findings from US20090143279A1 (priority 2007, published 2009) are described below.

Values joined by “and” are separate entries in the source; they are usually repeats but may differ in a detail not shown here. Equal values may be shown once.

One assay relates to cytochrome c. The class given is cell-based, mouse.
Conditions: not given
With `COc1cc2nc(N3CCN(C(=O)C4CCCO4)CC3)nc(N)c2cc1OC` (stereo not shown) [terazosin], the “cyt c (composite Z-score vs DMSO)” value is given as −0.258.

Take `CC(C)(C)c1ccc(C(O)CCCN2CCC(C(O)(c3ccccc3)c3ccccc3)CC2)cc1` (stereo not shown) [terfenadine]: the “cyt c (composite Z-score vs DMSO)” value is listed as −0.611.

Turning to `C[C@]12CC[C@H]3[C@@H](CCC4=CC(=O)CC[C@@]43C)[C@@H]1CC[C@@H]2O` [testosterone], the cyt c was −0.787.

As for `c1ccc(C2CN3CCSC3=N2)cc1` (stereo not shown) [tetramisole], the cyt c worked out at 0.209.

Regarding `Cc1ncc(C[n+]2csc(CCO)c2C)c(N)n1` [thiamine], the “cyt c (composite Z-score)” value amounted to 0.284.

Regarding `Nc1nc2nc[nH]c2c(=S)[nH]1` [thioguanine], the “cyt c (composite Z-score vs DMSO)” value is listed as −1.454.

On to `CCCC(C)C1(CC)C(=O)NC(=S)NC1=O` (stereo not shown) [thiopental], for which the “cyt c (composite Z-score vs DMSO)” value was −0.299.

On to `CN1CCN(CC/C=C2/c3ccccc3Sc3ccc(S(=O)(=O)N(C)C)cc32)CC1` [thiothixene], for which the cyt c came out at 0.307.

On to `Clc1ccccc1CN1CCc2sccc2C1` [ticlopidine], for which the “cyt c (composite Z-score vs DMSO)” value is on record as −0.316.

For the compound `Cc1ccc(O)c([C@H](CCN(C(C)C)C(C)C)c2ccccc2)c1` [tolterodine], the cyt c is reported as −0.406.

`CCOC(=O)[C@H](CCc1ccccc1)N[C@@H](C)C(=O)N1[C@H](C(=O)O)C[C@H]2CCCC[C@@H]21` [trandolapril] had a cyt c of 0.039.

Regarding `O=c1n(CCCN2CCN(c3cccc(Cl)c3)CC2)nc2ccccn12` [trazodone], the “cyt c (composite Z-score vs DMSO)” value was 0.028 and 0.038.

`CC(C)(C)C(=O)C(Oc1ccc(Cl)cc1)n1cncn1` (stereo not shown) [triadimefon]: the cyt c is listed as 0.286.

Regarding `C[C@]12C=CC(=O)C=C1CC[C@H]1[C@@H]3C[C@@H](O)[C@](O)(C(=O)CO)[C@@]3(C)C[C@H](O)[C@@]12F` [triamcinolone], the cyt c is −1.483 and the “cyt c (composite Z-score vs DMSO)” value stood at 0.087.

For `C[n+]1cccc(C(=O)[O-])c1` [trigonelline], the “cyt c (composite Z-score)” value is reported as −0.072.

The same assay, now with this note: composite Z-score vs mock-treated (DMSO) wells; concentration of each compound in μM.
For `CCCc1nc2c(C)cc(-c3nc4ccccc4n3C)cc2n1Cc1ccc(-c2ccccc2C(=O)O)cc1` [telmisartan], the cyt c was −0.044.

Compound `CC(C)N1CCN(c2ccc(OCC3COC(Cn4cncn4)(c4ccc(Cl)cc4Cl)O3)cc2)CC1` (stereo not shown) [terconazole] yielded a cyt c of 0.552.

In the case of `COC(=O)C1=CO[C@@H](C)[C@@H]2CN3CCc4c([nH]c5ccccc45)[C@@H]3C[C@H]12` [tetrahydroalstonine], the cyt c was 1.439.

Take `COc1c(O[C@@H]2O[C@H](CO)[C@@H](O)[C@H](O)[C@H]2O)cc2c(c1OC)-c1ccc(SC)c(=O)cc1[C@@H](NC(C)=O)CC2` [thiocolchicoside]: the cyt c was 0.108.

For `C=C(NC(=O)C(=C)NC(=O)c1csc(C2=N[C@@H]3c4csc(n4)[C@H]4NC(=O)c5csc(n5)[C@H]([C@](C)(O)[C@@H](C)O)NC(=O)[C@H]5CSC(=N5)/C(=C/C)NC(=O)[C@H]([C@@H](C)O)NC(=O)c5csc(n5)[C@]3(CC2)NC(=O)[C@H](C)NC(=O)C(=C)NC(=O)[C@H](C)NC(=O)[C@H]([C@@H](C)CC)N[C@@H]2C=Cc3c([C@H](C)O)cc(nc3[C@H]2O)C(=O)O[C@@H]4C)n1)C(N)=O` [thiostrepton], the cyt c is reported as −1.134.

Turning to `CC1(C)O[C@@H]2[C@@H](CO[C@@]3(COS(N)(=O)=O)OC(C)(C)O[C@@H]23)O1` [topiramate], the cyt c is given as −0.093.

For the compound `C[C@@H]1O[C@@H](OC[C@H]2O[C@@H](Oc3c(-c4ccc(OCCO)c(OCCO)c4)oc4cc(OCCO)cc(O)c4c3=O)[C@H](O)[C@@H](O)[C@@H]2O)[C@H](O)[C@H](O)[C@H]1O` [troxerutin], the cyt c is given as −0.673.

In the case of `COc1cc2c3cc1Oc1cc(ccc1O)C[C@@H]1c4c(cc(OC)c(O)c4Oc4ccc(cc4)C[C@@H]3N(C)CC2)CC[N+]1(C)C` [tubocurarine], the cyt c amounted to 1.117.

Staying with this assay, now noted: normalized score (composite Z-score vs DMSO mock-treated wells); compound concentration (μM).
Turning to `CC(C(=O)O)c1ccc(C(=O)c2ccccc2)s1` (stereo not shown) [tiaprofenic acid], the cyt c was determined as 0.644.
